Counter-ions that a name gives are not always drawn.
Target: T1, human mGlu 5a receptor (Homo sapiens, UniProt P41594)
T1 construct: expressed in transfected cells; host or cells: EBNA cells (transient transfection); cell membrane homogenates
Experiment: [3H]MPEP competition binding on membranes of EBNA cells transfected with human mGlu 5a receptor
Settings: read-out: Ki (mGluR5)
Protocol: For binding experiments, cDNA encoding human mGlu 5a receptor was transiently transfected into EBNA cells using a procedure described by Schlaeger and Christensen [Cyto-technology 15:1–13 (1998)]. Cell membrane homogenates were stored at −80° C. until the day of assay where upon they were thawed and resuspended and polytronised in 15 mM Tris-HCl, 120 mM NaCl, 100 mM KCl, 25 mM CaCl2, 25 mM MgCl2 binding buffer at pH 7.4 to a final assay concentration of 20 μg protein/well.
Saturation isotherms were determined by addition of twelve [^3H]MPEP concentrations (0.04–100 nM) to these membranes (in a total volume of 200 μl) for 1 h at 4° C. Competition experiments were performed with a fixed concentration of [^3H]MPEP (2 nM) and IC50 values of test compounds evaluated using 11 concentrations (0.3–10,000 nM). Incubations were performed for 1 h at 4° C.
At the end of the incubation, membranes were filtered onto unifilter (96-well white microplate with bonded GF/C filter preincubated 1 h in 0.1% PEI in wash buffer, Packard BioScience, Meriden, Conn.) with a Filtermate 96 harvester (Packard BioScience) and washed 3 times with cold 50 mM Tris-HCl, pH 7.4 buffer. Nonspecific binding was measured in the presence of 10 μM MPEP. The radioactivity on the filter was counted (3 min) on a Packard Top-count microplate scintillation counter with quenching correction after addition of 45 μl of microscint 40 (Canberra Packard S. A., Zürich, Switzerland) and shaking for 20 min.
The inhibition (antagonists) curves were fitted with a four parameter logistic equation giving IC50, and Hill coefficient using an iterative non linear curve fitting software (Xcel fit).
The Ki value is defined by the following formula: Ki=IC50/[1+L/Kd] in which the IC50 values are those concentrations of the compounds tested which cause 50% inhibition of the competing radioligand ([^3H]MPEP). L is the concentration of radioligand used in the binding experiment and the Kd value of the radioligand is empirically determined for each batch of membranes prepared.

T1 sequence (P41594 21-1180 isoform P41594-2 limits assumed): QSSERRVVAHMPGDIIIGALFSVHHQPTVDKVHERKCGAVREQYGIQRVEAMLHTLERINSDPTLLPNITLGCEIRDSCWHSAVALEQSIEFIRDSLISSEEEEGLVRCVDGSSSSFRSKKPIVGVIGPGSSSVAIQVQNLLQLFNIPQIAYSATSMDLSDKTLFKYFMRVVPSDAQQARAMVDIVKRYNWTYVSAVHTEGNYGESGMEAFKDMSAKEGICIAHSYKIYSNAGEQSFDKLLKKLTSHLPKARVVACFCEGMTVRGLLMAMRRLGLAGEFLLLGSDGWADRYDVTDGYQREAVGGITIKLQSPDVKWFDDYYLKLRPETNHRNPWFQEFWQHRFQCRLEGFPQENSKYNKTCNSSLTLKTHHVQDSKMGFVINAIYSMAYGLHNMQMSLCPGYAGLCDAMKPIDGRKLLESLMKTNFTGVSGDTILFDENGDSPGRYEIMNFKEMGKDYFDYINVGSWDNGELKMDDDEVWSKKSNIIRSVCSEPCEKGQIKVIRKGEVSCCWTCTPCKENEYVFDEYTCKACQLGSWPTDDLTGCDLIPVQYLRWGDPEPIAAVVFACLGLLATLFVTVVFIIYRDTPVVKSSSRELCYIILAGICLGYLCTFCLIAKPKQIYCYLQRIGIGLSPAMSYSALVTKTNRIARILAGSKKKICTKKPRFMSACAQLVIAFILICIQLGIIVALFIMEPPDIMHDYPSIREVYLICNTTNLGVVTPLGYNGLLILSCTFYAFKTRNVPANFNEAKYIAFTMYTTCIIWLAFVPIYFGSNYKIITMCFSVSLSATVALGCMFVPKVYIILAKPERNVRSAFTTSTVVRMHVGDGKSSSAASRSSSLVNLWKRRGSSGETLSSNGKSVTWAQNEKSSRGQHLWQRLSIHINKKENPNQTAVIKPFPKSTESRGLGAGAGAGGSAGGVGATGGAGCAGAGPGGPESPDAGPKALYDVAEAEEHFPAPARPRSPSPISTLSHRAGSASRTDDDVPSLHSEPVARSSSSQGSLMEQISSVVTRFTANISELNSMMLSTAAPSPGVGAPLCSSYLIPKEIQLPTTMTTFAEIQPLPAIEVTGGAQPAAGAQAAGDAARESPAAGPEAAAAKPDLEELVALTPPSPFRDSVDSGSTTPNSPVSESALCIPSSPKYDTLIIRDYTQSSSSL

Compound	Ki [nM]
Cc1cc(C#Cc2cn(-c3cccc(C4CC4)n3)c(C)n2)ccn1 [Compound 57, 2-cyclopropyl-6-[2-methyl-4-(2-methyl-pyridin-4-ylethynyl)-imidazol-1-yl]-pyridine]	16
Cc1cc(C#Cc2cn(-c3cccc(N(C)C)n3)c(C)n2)ccn1 [Compound 71, dimethyl-{6-[2-methyl-4-(2-methyl-pyridin-4-ylethynyl)-imidazol-1-yl]-pyridin-2-yl}-amine]	19
Cc1cc(C#Cc2cn(-c3nccc(Cl)n3)c(C)n2)ccn1 [Compound 29, 4-chloro-2-[2-methyl-4-(2-methyl-pyridin-4-ylethynyl)-imidazol-1-yl]-pyrimidine]	25
Cc1cc(C#Cc2cn(-c3ccc(Cl)c(Cl)c3)c(C)n2)ccn1 [Compound 2, 4-[1-(3,4-Dichloro-phenyl)-2-methyl-1H-imidazol-4-ylethynyl]-2-methyl-pyridine hydrochloride]	18
Cc1cc(C#Cc2cn(-c3nccc(C(F)(F)F)n3)c(C)n2)ccn1 [Compound 21, 2-[2-methyl-4-(2-methyl-pyridin-4-ylethynyl)-imidazol-1-yl]-4-trifluoromethyl-pyrimidine]	17
Cc1cc(C#Cc2nc(C)n(-c3ccc(F)cc3)c2C=O)ccn1 [Compound 89, 3-(4-Fluoro-phenyl)-2-methyl-5-(2-methyl-pyridin-4-ylethynyl)-3H-imidazole-4-carbaldehyde]	65
Cc1cc(C#Cc2nc(C)n(-c3ccc(F)cc3)c2C)ccn1 [Compound 88, 4-[1-(4-Fluoro-phenyl)-2,5-dimethyl-1H-imidazol-4-ylethynyl]-2-methyl-pyridine]	33
Cc1cc(C#Cc2cn(-c3ncccn3)c(C)n2)ccn1 [Compound 8, 2-[2-Methyl-4-(2-methyl-pyridin-4-ylethynyl)-imidazol-1-yl]-pyrimidine]	74
COc1ccnc(-n2cc(C#Cc3ccnc(C)c3)nc2C)n1 [Compound 22, 4-methoxy-2-[2-methyl-4-(2-methyl-pyridin-4-ylethynyl)-imidazol-1-yl]-pyrimidine]	18
Cc1cc(C#Cc2cn(-c3cncc(C4CC4)n3)c(C)n2)ccn1 [Compound 56, 2-cyclopropyl-6-[2-methyl-4-(2-methyl-pyridin-4-ylethynyl)-imidazol-1-yl]-pyrazine]	27
Cc1cc(C#Cc2cn(-c3ccc4c(ccn4C)c3)c(C)n2)ccn1 [Compound 18, 1-methyl-5-[2-methyl-4-(2-methyl-pyridin-4-ylethynyl)-imidazol-1-yl]-1H-indole]	45
Cc1cc(C#Cc2cn(-c3cccc(C(F)(F)F)c3)c(C)n2)ccn1 [Compound 7, 2-methyl-4-[2-methyl-1-(3-trifluoromethyl-phenyl)-1H-imidazol-4-ylethynyl]-pyridine]	24
COc1cccc(-n2cc(C#Cc3ccnc(C)c3)nc2C)n1 [Compound 68, 2-Methoxy-6-[2-methyl-4-(2-methyl-pyridin-4-ylethynyl)-imidazol-1-yl]-pyridine]	18
Cc1cc(C#Cc2cn(-c3ccc(F)c(F)c3)c(C)n2)ccn1 [Compound 4, 4-[1-(3,4-difluoro-phenyl)-2-methyl-1H-imidazol-4-ylethynyl]-2-methyl-pyridine]	25

System: not given
Experiment: not given
Settings: not given

Compound	melting point [°C]
COc1cc(-n2cc(C#Cc3ccnc(C)c3)nc2C)ccn1 (as salt: HCl) [Compound 69, 2-Methoxy-4-[2-methyl-4-(2-methyl-pyridin-4-ylethynyl)-imidazol-1-yl]-pyridine]	145 to 147
Cc1cc(C#Cc2cn(-c3ccc(F)cc3)c(C)n2)ccn1 [Compound 1, 4-[1-(4-Fluoro-phenyl)-2-methyl-1H-imidazol-4-ylethynyl]-2-methyl-pyridine]	151
Cc1cc(C#Cc2cn(-c3ncccn3)c(C)n2)ccn1 [Compound 8, 2-[2-Methyl-4-(2-methyl-pyridin-4-ylethynyl)-imidazol-1-yl]-pyrimidine]	164 to 165

Source: patent US7153874B2, “Imidazole derivatives” (Hoffmann-La Roche Inc., priority 2003, dated 2006)
